Like-named read-outs stand apart in the source and are kept apart here.
Legend:
[1] = tested on: Colon, HT-29; assay: alamarBlue cancer cell inhibition, HT-29; type: cell-based; conditions: HT-29, 72 hours
Protocol: (§1) Each suspension of various cancer cell lines was inoculated in a 96-well cultural plate and incubated at 37° C. under 5% carbon dioxide for 24 hours. Then, 100 μL of medium and 2 μl of different concentrations (100, 10, 1, 0.1 and 0.01 μM) of dichotomin (PK-22-1) were added therein. In addition, the cancer cells treated with a control drug, mitomycin, were incubated and treated in the same manner. After 72 hours of incubation, 20 μl of alamarBlue reagent was added into each well and the cells were incubated for another 6 hours. Cell densities were detected with a fluorescence detector, GENios equipped with a microreader, using an exciting wavelength of 530 nm and an emission wavelength of 590 nm. The IC50 value means the concentration at which the experimental drug reduces the cell numbers by 50% at the end of the experiment. This value represents the inhibition activity of the test drugs.

[2] = tested on: Lung, A549; assay: alamarBlue cancer cell inhibition, A549; type: cell-based; conditions: A549, 72 hours
Protocol: as §1

[3] = tested on: Liver, Hep 3B; assay: alamarBlue cancer cell inhibition, Hep 3B; type: cell-based; conditions: 72 hours
Protocol: as §1

[4] = tested on: GP7TB cells; assay: Growth inhibition (cell number), GP7TB; type: cell-based, rat; conditions: for Amount of Cells: GP7TB, mean of triplicate; for IC50: Rattus norvegicus, GP7TB cells, read-out: 50% inhibition concentration (IC50)
Protocol: Rat liver cancer cell line GP7TB and human liver cancer cell line Huh-7 and HepG2 at 10^4 cells each were seeded in individual wells of a 96-well cultural plate. After overnight incubation, different concentrations of the extracts were added therein for 24 hours. Subsequently, the medium was discarded, and the medium with 20 μl/ml of MTS was added for 1 hour. Since MTS reagent contains 3-(4,5-dimethylhiazol-2-yl)-5-(3-carboxymethoxyphenyl)-2-(4-sulfophenyl)-2H-tetrazolium, which could be metabolized by NADH or NADPH dehydrogenase in living cells to a formazan product, cellular survival rates could be estimated from different readings at 490 nm.
The experiments were performed in triplicate and the results were performed by average calculation.

[5] = tested on: GP7TB cells; assay: In vivo growth inhibition of rat liver tumor by intratumoral injection
Protocol: The back of each rat was injected subcutaneously with 3×10^6 cells of GP7TB cells. The tumor grows up to 0.3 cm in diameter after about one week. A single dose of dichotomin (PK-22-1, 2.0 mg/kg) or the control buffer (PBS) was directly injected into the tumor once every day for 8 consecutive days. The tumor size was measured, and the cancer cell growth inhibition effects of the control group and dichotomin treated group were compared.

[6] = tested on: HepG2 cells; assay: Nuclear DNA fragmentation (agarose gel electrophoresis), HepG2; type: cell-based, human; conditions: HepG2, 12.5 μg/ml, 48 hours
[7] = tested on: GP7TB cells; assay: Nuclear DNA fragmentation (agarose gel electrophoresis), GP7TB; type: cell-based, rat; conditions: 12.5 μg/ml, 48 hours
Protocol: To understand the GP7TB cell growth inhibition mechanism of the active components and the extracts, GP7TB cells were treated with the extracts and dichotomin at a constant concentration of 12.5 μg/ml for 48 hours. The cellular DNA was extracted and analyzed with agarose gel electrophoresis. […] Therefore, it could be concluded that dichotomin could induce apoptosis of the abovementioned cell lines.

[8] = tested on: GP7TB cells; assay: Ex-vivo anti-tumor experiment: pretreated GP7TB cells grafted in F344 rats; set-up: species or system rat; conditions: GP7TB cells pretreated 12.5 μg/ml 24 hours; 5×10^6 cells S.C.; after three weeks
Protocol: GP7TB cells (3×10^6 cells each) were incubated in several 10-cm cultural dishes and treated with dichotomin (PK-22-1) or the extract without dichotomin (PK-22-3) at a concentration of 12.5 μg/ml for 24 hours. These cells were collected. GP7TB cells, PK-22-1-treated GP7TB cells, and PK-22-3-treated GP7TB cells (5×10^6 cells each) were separately injected subcutaneously at three different locations on the back of each F344 rat. […] The tumor sizes of rats inoculated with GP7TB cells treated with the extract PK-22-3 without dichotomin were the same as those of rats treated with GP7TB cells (control group).

Molecule: CO[C@@]12[C@H](COC(N)=O)C3=C(C(=O)C(C)=C(N)C3=O)N1C[C@@H]1N[C@@H]12 [Mitomycin, reference compound]
- IC50 ([1]; Homo sapiens): 330 nM
- IC50 ([2]; Homo sapiens): 160 nM
- IC50 ([3]; Homo sapiens, Hep3B): 40 nM

Molecule: COc1cccc2c1C(=O)c1c(O)c3c(c(O)c1C2=O)C[C@@](O)(C(=O)CO)C[C@@H]3O[C@H]1C[C@H](N)[C@H](O)[C@H](C)O1 [Adriamycin]
- Amount of Cells ([4]; 1 μg/ml): 7.80 × 10^4 cells/ml
- Amount of Cells ([4]; 2 μg/ml): 2.30 × 10^4 cells/ml
- Amount of Cells ([4]; 4 μg/ml): 2.00 × 10^4 cells/ml
- Amount of Cells ([4]; 6 μg/ml): 3.00 × 10^4 cells/ml
- Amount of Cells ([4]; 8 μg/ml): 2.50 × 10^4 cells/ml
- Amount of Cells ([4]; 10 μg/ml): 2.30 × 10^4 cells/ml
- Amount of Cells ([4]; 12 μg/ml): 1.60 × 10^4 cells/ml
- IC50 ([4]; by mass): 1.54 µg/mL
- IC50 ([4]; molar): 2660 nM

Molecule: (25R)-26-O-beta-D-glucopyranosyl-22-hydroxy-5-ene-furostan-3beta, 26-diol-3-O-alpha-L-rhamnopyranosyl-(1→4)-alpha-L-rhamnopyranosyl-(1→4)-[alpha-L-rhamnopyranosyl-(1→2)]-beta-D-glucopyranoside [PK-22-1]
- Tumor volume after injection (Day 8) ([5]; 2.0 mg/kg into the tumor once daily for 8 days, volume = 0.52 × length × width × height): (0.692 cm^3)
- Apoptosis of cancer cells in tumor (pathological section) ([5]; 2.0 mg/kg intratumoral, 8 days): exhibited apoptosis
- Tumor size relative to the control group ([5]; 2.0 mg/kg intratumoral, 8 days, vs PBS): only half the size
- Tumor volume before injection (Day 0) ([5]; baseline, volume = 0.52 × length × width × height): (0.142 cm^3)
- Growth (folds) ([5]; tumor volume Day 8 vs Day 0, 2.0 mg/kg intratumoral, PBS control 9.26): 4.87 folds
- Amount of Cells ([4]; 1 μg/ml): 1.30 × 10^5 cells/ml
- Amount of Cells ([4]; 2 μg/ml): 4.60 × 10^4 cells/ml
- Amount of Cells ([4]; 4 μg/ml): 2.00 × 10^4 cells/ml
- Amount of Cells ([4]; 6 μg/ml): 1.10 × 10^4 cells/ml
- Amount of Cells ([4]; 8 μg/ml): 5.00 × 10^4 cells/ml
- Amount of Cells ([4]; 10 μg/ml): 3.00 × 10^3 cells/ml
- Amount of Cells ([4]; 12 μg/ml): 1.60 × 10^3 cells/ml
- Nuclear DNA fragmentation [6]: most notable effects
- IC50 [1]: 7300 nM
- Nuclear DNA fragmentation [7]: most notable effects
- Rats that did not form any tumor [8]: six rats of the nine
- Tumor size relative to tumors from untreated GP7TB cells (control group) [8]: one sixth
- IC50 [2]: 840 nM
- IC50 [3]: 8500 nM

Reference: patent US20100179098A1, “FUROST-5-ENE-3, 22, 26-TRIOL GLYCOSIDE COMPOUND FOR PREVENTING AND TREATMENT CANCER” (priority 2006, published 2010)
